Test results from paper PMC11671014 (PLOS Pathogens, 2024).
Read-outs that look alike come from different tables or passages of the source.

Test system: P. falciparum Brazilian field isolates
Test: Ex vivo drug susceptibility of Brazilian field isolates (P. falciparum)
Format: cell-based
Conditions: Plasmodium falciparum
Experimental: Compounds were assayed on ten P. vivax isolates and seven P. falciparum Brazilian isolates collected from mono-infected patients, who had signed a written informed consent form to participate in the study, using previously described methods. The initial parasitemia ranged from 2,100–8,000 parasites/μL for P. vivax and 3,500–9,000 parasites/μL for P. falciparum isolates. Artesunate and chloroquine were assayed in parallel as standard compounds. The analyses included only the isolates that were incubated for ≥ 40 h with the compounds.

Q: How did the EC50 (range over n = 7 isolates, read-out: EC50 range, P. falciparum Brazilian field isolates) turn out when CC(C)c1nn([C@@H]2O[C@H](COS(N)(=O)=O)[C@@H](O)[C@H]2O)c2ncnc(N)c12 [ML471, ((2R,3S,4R,5R)-5-(4-amino-3-isopropyl-1H-pyrazolo[3,4-d]pyrimidin-1-yl)-3,4-dihydroxytetrahydrofuran-2-yl)methyl sulfamate] was run?
A: The EC50 was 2.5 to 4.9 nM.

Q: And the EC50 (read-out: Median EC50, P. falciparum Brazilian field isolates)?
A: Its EC50 is 4.2 nM.
